Results published in patent publication US12390449B2, “Substituted 2-aminobenzimidazoles analogs as antibiofilm agents” (priority 2018, dated 2025).
Entries after “also recorded” stand apart in the source; their conditions may differ. Where a name gives a salt, the structure may show the parent alone. Read-outs that look alike come from different tables or passages of the source.

Assays:
[1] = system: S. typhimurium ATCC 14028; assay: Growth curves, planktonic bacterial growth; assay type: cell-based; details: at their IC50 values; hydrochloride
Method: Growth Curves: S. typhimurium was grown overnight in TSB, and this culture was used to inoculate fresh 1:20 TSB (OD600=0.08). Inoculated medium was aliquoted (3 mL) into culture tubes, and compound was added, with untreated inoculated medium serving as the control. Tubes were incubated at 30° C. with shaking. Samples were taken at 2, 4, 6, 8, and 24 h time points, serially diluted in fresh 1:20 TSB, and plated on nutrient agar. Plates were incubated at 37° C. overnight in stationary conditions, and the number of colonies was enumerated.

[2] = system: Salmonella typhimurium ATCC14028 Biofilms; assay: Inhibitory effect of test compounds on Salmonella typhimurium ATCC14028 biofilms (crystal violet, 96-well); assay type: cell-based
Method: Procedure to Determine the Inhibitory Effect of Test Compounds on Salmonella typhimurium ATCC14028 Biofilms: […] Stock solutions of predetermined concentrations of the test compounds were then made in 1 mL of bacterial culture. […] Sample plates were then incubated for 24 h at 30° C. After incubation, the medium was discarded from the wells and the plates were washed thoroughly with water. Plates were then stained with 110 μL of 0.1% solution of crystal violet (CV) and then incubated at ambient temperature for 30 min. Plates were washed with water again and the remaining stain was solubilized with 200 μL of 95% ethanol. A sample of 125 μL of solubilized CV stain from each well was transferred to the corresponding wells of a polystyrene microtiter dish. Biofilm inhibition was quantitated by measuring the OD540 of each well in which a negative control lane wherein no biofilm was formed served as a background and was subtracted out.

[3] = system: Galleria mellonella larvae; assay: Toxicity assay in Galleria mellonella larvae; assay type: in vivo; details: 400 mg kg^−1
Method: FIGS. 5A-5B show representative toxicity data obtained for a representative disclosed compound. […] Briefly, S. typhimurium (JSG210) was grown in the presence of a representative disclosed compound, compound M4, present at a concentration of 10 μM for 24 hours, followed by determination of viability measured by drip plating at T=0, 2, 5, 15, 20, 24 hours. 3 biological replicates were tested. […] Briefly, a representative disclosed compound, compound M4, was injected into last left proleg of Galleria mellonella larvae at 400 mg/kg and assessed at 24-hour intervals over 5 days. The study was repeated 3 times using 10 larvae per experiment group.
Toxicity was measured by drip plating and counting cfu/mL.

[4] = Salmonella enterica, 24 h, read-out: IC50 (μM), inhibition of biofilm formation, S. typhimurium ATCC14028, 24 h at 30° C., crystal violet OD540
[5] = read-out: IC50 (μM), inhibition of biofilm formation, S. typhimurium ATCC14028, 24 h at 30° C., crystal violet OD540, hydrochloride

CCCCCOc1ccc(C(=O)Nc2ccc3c(c2)nc(N)n3CCCc2ccccc2)cc1.Cl [Compound 10a, N-(2-Amino-1-(3-phenylpropyl)-1H-benzo[d]imidazol-5-yl)-4-pentoxybenzamide hydrochloride]
toxicity to planktonic bacterial growth [1]: no toxicity; also recorded: non-toxic
IC50 [2, 4]: 5.22 ± 0.11 µM

Cl.Nc1nc2cc(NC(=O)c3ccc(Cl)c(Cl)c3)ccc2n1CCCc1ccccc1 [Compound 10d, N-(2-Amino-1-(3-phenylpropyl)-1H-benzo[d]imidazol-5-yl)-3,4-dichlorobenzamide hydrochloride]
IC50 [2, 4]: < 7 µM
IC50 [2, 5]: 6.3 ± 1.29 µM
IC50 ([2]; read-out: IC50 (μM), inhibition of biofilm formation, S. typhimurium ATCC14028, 24 h at 30° C., crystal violet OD540, listed as 15d, hydrochloride): 6.3 ± 1.29 µM
toxicity to G. mellonella [3]: no toxicity

Cl.Nc1nc2cc(NC(=O)c3cc(Cl)cc(Cl)c3)ccc2n1CCCc1ccccc1 [Compound 10e, N-(2-Amino-1-(3-phenylpropyl)-1H-benzo[d]imidazol-5-yl)-3,5-dichlorobenzamide hydrochloride]
IC50 [2, 4]: 10 to 15 µM
IC50 [2, 5]: 13.3 ± 0.49 µM
toxicity to G. mellonella [3]: no toxicity

CCCCCCCCCCCCCC(=O)Nc1ccc2c(c1)nc(N)n2CCCc1ccccc1 [Compound 10t, N-(2-Amino-1-(3-phenylpropyl)-1H-benzo[d]imidazol-5-yhtetradecanamide hydrochloride]
IC50 [2, 5]: > 50 µM

Nc1nc2cc(C(=O)Nc3ccc(Cl)c(Cl)c3)ccc2n1CCCc1ccccc1 [Compound 15, 2-Amino-N-(3,4-dichlorophenyl)-1-(3-phenylpropyl)-1H-benzo[d]imidazole-5-carboxamide hydrochloride]
IC50 [2, 4]: 12.6 ± 1.8 µM

Cl.Nc1nc2cc(NC(=O)Nc3ccc(Cl)c(Cl)c3)ccc2n1CCCc1ccccc1 [Compound 20, 1-(2-Amino-1-(3-phenylpropyl)-1H-benzo[d]imidazol-5-yl)-3-(3,4-dichlorophenyl)urea hydrochloride]
toxicity to planktonic bacterial growth [1]: no toxicity; also recorded: non-toxic
IC50 [2, 4]: 7.69 ± 0.25 µM
